Measured values published in patent US8962608B2, “Cycloalkylnitrile pyrazole carboxamides as janus kinase inhibitors” (Merck Sharp & Dohme Corp., priority 2011, dated 2015).
pIC50: −log10 of the molar value.

Molecular target: JAK1 (recombinant purified GST-tagged catalytic domain) (Homo sapiens (Human), UniProt P23458)
Assay: biochemical
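Note: biochemical assay with HTRF read-out.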

Chain of JAK1 (recombinant purified GST-tagged catalytic domain) (P23458 875-1153): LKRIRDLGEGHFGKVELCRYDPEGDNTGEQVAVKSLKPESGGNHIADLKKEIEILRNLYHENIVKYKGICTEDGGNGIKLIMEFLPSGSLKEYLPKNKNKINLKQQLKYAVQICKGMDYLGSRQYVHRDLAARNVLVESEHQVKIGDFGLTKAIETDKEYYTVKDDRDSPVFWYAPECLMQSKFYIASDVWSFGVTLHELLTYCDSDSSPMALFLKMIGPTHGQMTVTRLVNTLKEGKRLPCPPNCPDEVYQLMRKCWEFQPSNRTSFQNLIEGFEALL

Structure (SMILES)	pIC50
N#C[C@H]1CCCC[C@@H]1n1cc(C(N)=O)c(Nc2ccc([C@@H](O)C(F)(F)F)nc2)n1 (single isomer, unassigned) [Example 17-46, 1-[(1S,2S or 1R,2R)-2-cyanocyclohexyl]-3-({6-[(1R or 1S)-2,2,2-trifluoro-1-hydroxyethyl]pyridin-3-yl}amino)-1H-pyrazole-4-carboxamide]	9.46
N#C[C@H]1CCCCC1n1cc(C(N)=O)c(Nc2ccc3c(c2)CCS3(=O)=O)n1 (mixture of isomers) [Example 20, 1-[(1S,2S and 1R,2R)-2-Cyanocyclohexyl]-3-[(1,1-dioxido-2,3-dihydro-1-benzothiophen-5-yl)amino]-1H-pyrazole-4-carboxamide]	9.40
CC1(C)CN([C@@H]2CC[C@H](n3cc(C(N)=O)c(Nc4ccnc(F)c4)n3)[C@@H](C#N)C2)C1 (single isomer, unassigned) [Example 28-142, 1-[(1S,2S,4R or 1R,2R,4S)-2-cyano-4-(3,3-dimethylazetidin-1-yl)cyclohexyl]-3-[(2-fluoropyridin-4-yl)amino]-1H-pyrazole-4-carboxamide]	8.70
COC(C)(C)c1ccc(Nc2nn([C@H]3CC[C@@H](O)C[C@@H]3C#N)cc2C(N)=O)cc1 (single isomer, unassigned) [Example 25-11, 1-[(1S,2S,4R or 1R,2R,4S)-2-cyano-4-hydroxycyclohexyl]-3-{[4-(1-methoxy-1-methylethyl)phenyl]amino}-1H-pyrazole-4-carboxamide]	9.35
C[C@H](N[C@H]1CC[C@H](n2cc(C(N)=O)c(Nc3ccc(OC(F)F)nc3)n2)[C@@H](C#N)C1)C1CC1 (single isomer, unassigned) [Example 28-32, 1-[(1S,2S,4S or 1R,2R,4R)-2-cyano-4-{[(1S)-1-cyclopropylethyl]amino}cyclo-hexyl]-3-{[6-(difluoromethoxy)pyridin-3-yl]amino}-1H-pyrazole-4-carboxamide]	8.30
C[C@H]1C[C@H](C)N1[C@@H]1CC[C@H](n2cc(C(N)=O)c(Nc3ccc(C(F)(F)F)cc3)n2)[C@@H](C#N)C1 (single isomer, unassigned) [Example 28-20, 1-{(1S,2S,4R or 1R,2R,4S)-2-cyano-4-[(2S,4S or 2R,4R)-2,4-dimethylazetidin-1-yl]cyclohexyl}-3-{[4-(trifluoromethyl)phenyl]amino}-1H-pyrazole-4-carboxamide]	8.30
N#Cc1ccc(Nc2nn([C@H]3CC[C@H](NCC(F)F)C[C@@H]3C#N)cc2C(N)=O)cc1 (single isomer, unassigned) [Example 28-116, 1-{(1S,2S,4S or 1R,2R,4R)-2-cyano-4-[(2,2-difluoroethyl)amino]cyclohexyl}-3-[(4-cyanophenyl)amino]-1H-pyrazole-4-carboxamide]	9.00
CN(C)[C@@H]1CC[C@H](n2cc(C(N)=O)c(Nc3ccc(OC(F)F)cc3)n2)[C@@H](C#N)C1 (single isomer, unassigned) [Example 28-95, 1-[(1S,2S,4R or 1R,2R,4S)-2-cyano-4-(dimethylamino)cyclohexyl]-3-{[4-(difluoromethoxy)phenyl]amino}-1H-pyrazole-4-carboxamide]	9.00
COC(=O)c1ccc(Nc2nn([C@H]3CCCC[C@@H]3C#N)cc2C(N)=O)cn1 (single isomer, unassigned) [Example 17-70, methyl 5-({4-carbamoyl-1-[(1R,2R or 1S,2S)-2-cyanocyclohexyl]-1H-pyrazol-3-yl}amino)pyridine-2-carboxylate]	8.52
N#C[C@H]1CCCC[C@@H]1n1cc(C(N)=O)c(Nc2ccc([C@H](O)C(F)(F)F)nc2)n1 (single isomer, unassigned) [Example 17-50, 1-[(1S,2S or 1R,2R)-2-cyanocyclohexyl]-3-({6-[(1S or 1R)-2,2,2-trifluoro-1-hydroxyethyl]pyridin-3-yl}amino)-1H-pyrazole-4-carboxamide]	9.70
C[C@@H]1C[C@@H](C)N1[C@@H]1CC[C@H](n2cc(C(N)=O)c(Nc3ccc(C(F)(F)F)cc3)n2)[C@@H](C#N)C1 (single isomer, unassigned) [Example 28-30, 1-{(1S,2S,4R or 1R,2R,4S)-2-cyano-4-[(2R,4R or 2S,4S)-2,4-dimethylazetidin-1-yl]cyclohexyl}-3-{[4-(trifluoromethyl)phenyl]amino}-1H-pyrazole-4-carboxamide]	7.82
N#C[C@H]1C[C@H](NCC(F)(F)F)CC[C@@H]1n1cc(C(N)=O)c(Nc2ccc(Cl)cc2)n1 (single isomer, unassigned) [Example 28-225, 3-[(4-chlorophenyl)amino]-1-{(1S,2S,4R or 1R,2R,4S)-2-cyano-4-[(2,2,2-trifluoroethyl)amino]cyclohexyl}-1H-pyrazole-4-carboxamide]	7.92
C[C@@](O)(c1ccc(Nc2nn([C@H]3CCCC[C@@H]3C#N)cc2C(N)=O)cn1)C(F)(F)F (single isomer, unassigned) [Example 17-35, 1-[(1S,2S or 1R,2R)-2-cyanocyclohexyl]-3-({6-[(1R or 1S)-2,2,2-trifluoro-1-hydroxy-1-methylethyl]pyridin-3-yl}amino)-1H)-pyrazole-4-carboxamide]	8.52
N#C[C@H]1C[C@@H](N2CC(O)(C(F)(F)F)C2)CCC1n1cc(C(N)=O)c(Nc2ccc(Cl)cc2)n1 (single isomer, unassigned) [Example 28-213, 3-[(4-chlorophenyl)amino]-1-{(1S,2S,4S or 1R,2R,4R)-2-cyano-4-[3-hydroxy-3-(trifluoromethyl)azetidin-1-yl]cyclohexyl}-1H-pyrazole-4-carboxamide]	9.00
N#C[C@H]1C[C@@H](N2CCC2)CC[C@@H]1n1cc(C(N)=O)c(Nc2ccc(OC(F)F)cc2)n1 (single isomer, unassigned) [Example 28-108, 1-[(1S,2S,4S or 1R,2R,4R)-4-azetidin-1-yl-2-cyanocyclohexyl]-3-{[4-(difluoromethoxy)phenyl]amino}-1H-pyrazole-4-carboxamide]	8.70
N#C[C@@H]1CCCC[C@@H]1n1cc(C(N)=O)c(Nc2ccc(F)nc2)n1 (racemic) [Example 17-24, 1-[(1S,2R and 1R,2S)-2-cyanocyclohexyl]-3-[(6-fluoropyridin-3-yl)amino]-1H-pyrazole-4-carboxamide]	7.48
N#C[C@H]1C[C@@H](N2CCC2)CC[C@@H]1n1cc(C(N)=O)c(Nc2ccc(CC(F)(F)F)cc2)n1 (single isomer, unassigned) [Example 28-69, 1-[(1S,2S,4S or 1R,2R,4R)-4-azetidin-1-yl-2-cyanocyclohexyl]-3-{[4-(2,2,2-trifluoroethyl)phenyl]amino}-1H-pyrazole-4-carboxamide]	9.22
CN([C@H]1CCC(n2cc(C(N)=O)c(Nc3ccc(Cl)cc3)n2)[C@@H](C#N)C1)C(C)(C)C1CC1 (single isomer, unassigned) [Example 28-229, 3-[(4-chlorophenyl)amino]-1-{(1S,2S,4S or 1R,2R,4R)-2-cyano-4-[(1-cyclopropyl-1-methylethyl)(methyl)amino]cyclo-hexyl}-1H-pyrazole-4-carboxamide]	9.00
N#C[C@H]1CCCC[C@@H]1n1cc(C(N)=O)c(Nc2ccc(F)nc2)n1 (single isomer, unassigned) [Example 17-19, 1-[(1S,2S or 1R,2R)-2-cyanocyclohexyl]-3-[(6-fluoropyridin-3-yl)amino]-1H-pyrazole-4-carboxamide]	8.52

Results, then the compound that gave them:

pIC50	Structure (SMILES)
8.52	C[C@@]1(O)CC[C@H](n2cc(C(N)=O)c(Nc3ccc(Cl)cc3)n2)[C@@H](C#N)C1 (single isomer, unassigned) [Example 32-13, 3-[(4-chlorophenyl)amino]-1-[(1S,2S,4R or 1R,2R,4S)-2-cyano-4-hydroxy-4-methylcyclohexyl]-1H-pyrazole-4-carboxamide]
7.82	N#C[C@H]1C[C@@](O)(C2CC2)CC[C@@H]1n1cc(C(N)=O)c(Nc2ccc(Cl)cc2)n1 (single isomer, unassigned) [Example 32-14, 3-[(4-chlorophenyl)amino]-1-[(1S,2S,4R or 1R,2R,4S)-2-cyano-4-cyclopropyl-4-hydroxycyclohexyl]-1H-pyrazole-4-carboxamide]
6.74	N#C[C@H]1C[C@@H](C(=O)N[C@@H](C2CC2)C(F)(F)F)CC[C@@H]1n1cc(C(N)=O)c(Nc2ccc(Cl)cc2)n1 (single isomer, unassigned) [Example 35-24, 3-[(4-chlorophenyl)amino]-1-[(1S,2S,4S or 1R,2R,4R)-2-cyano-4-{[(1S)-1-cyclopropyl-2,2,2-trifluoroethyl]carbamoyl}cyclohexyl]-1H-pyrazole-4-carboxamide]
9.00	CC(C)(CF)c1ccc(Nc2nn([C@H]3CC[C@H](O)C[C@@H]3C#N)cc2C(N)=O)cc1 (single isomer, unassigned) [Example 33-21, 1-[(1S,2S,4S or 1R,2R,4R)-2-cyano-4-hydroxycyclohexyl]-3-{[4-(2-fluoro-1,1-dimethylethyl)phenyl]amino}-1H-pyrazole-4-carboxamide]
7.21	N#C[C@H]1C[C@@H](C(=O)N2CC(F)(F)C2)CC[C@@H]1n1cc(C(N)=O)c(Nc2ccc(Cl)cc2)n1 (single isomer, unassigned) [Example 35-6, 3-[(4-chlorophenyl)amino]-1-{(1S,2S,4S or 1R,2R,4R)-2-cyano-4-[(3,3-difluoroazetidin-1-yl)carbonyl]cyclohexyl}-1H-pyrazole-4-carboxamide]
9.07	C=C[C@@]1(O)CC[C@H](n2cc(C(N)=O)c(Nc3ccc(Cl)cc3)n2)[C@@H](C#N)C1 (single isomer, unassigned) [Example 32-16, 3-[(4-chlorophenyl)amino]-1-[(1S,2S,4R or 1R,2R,4S)-2-cyano-4-ethenyl-4-hydroxycyclohexyl]-1H-pyrazole-4-carboxamide]
8.05	N#C[C@@H]1C[C@H](C(=O)N[C@@H](C2CC2)C(F)(F)F)CC[C@H]1n1cc(C(N)=O)c(Nc2ccc(Cl)cc2)n1 (single isomer, unassigned) [Example 35-16, 3-[(4-chlorophenyl)amino]-1-[(1R,2R,4R or 1S,2S,4S)-2-cyano-4-{[(1S)-1-cyclopropyl-2,2,2-trifluoroethyl]carbamoyl}cyclohexyl]-1H-pyrazole-4-carboxamide]
